# Test results: ChEMBL document CHEMBL1157891, “Methylene amine substituted arylindenopyrimidines as potent adenosine A(2A)/A(1) antagonists” (Bioorg Med Chem Lett, 2010)
# Active and inactive are the calls of the source. The rule behind the calls is not given here.
# Key:
# Mus musculus [1] = experiment: Inhibition of haloperidol-induced catalepsy in mouse at 10 mg/kg, po; type: functional, organism-based; set-up: dose 10 mg/kg
# Mus musculus [2] = experiment: Inhibition of haloperidol-induced catalepsy in po dosed mouse; type: functional
# Adenosine receptor A1 = molecular target: T1, Adenosine receptor A1 (Homo sapiens, UniProt P30542); experiment: Antagonist activity at adenosine A1 receptor; type: functional
# T1 sequence (P30542 whole entry): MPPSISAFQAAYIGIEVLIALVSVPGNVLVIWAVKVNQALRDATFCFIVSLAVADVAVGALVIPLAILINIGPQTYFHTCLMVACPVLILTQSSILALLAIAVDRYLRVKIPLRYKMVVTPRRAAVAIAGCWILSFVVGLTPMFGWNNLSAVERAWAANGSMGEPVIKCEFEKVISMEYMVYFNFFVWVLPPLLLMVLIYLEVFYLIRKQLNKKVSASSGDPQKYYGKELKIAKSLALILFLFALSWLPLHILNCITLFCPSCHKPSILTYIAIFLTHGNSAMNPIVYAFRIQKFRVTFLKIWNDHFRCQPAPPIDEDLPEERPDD
# Adenosine receptor A2a = Adenosine receptor A2a (Homo sapiens, UniProt P29274); experiment: Antagonist activity at adenosine A2A receptor; type: functional
# Adenosine receptor A2a, sequence (P29274 whole entry): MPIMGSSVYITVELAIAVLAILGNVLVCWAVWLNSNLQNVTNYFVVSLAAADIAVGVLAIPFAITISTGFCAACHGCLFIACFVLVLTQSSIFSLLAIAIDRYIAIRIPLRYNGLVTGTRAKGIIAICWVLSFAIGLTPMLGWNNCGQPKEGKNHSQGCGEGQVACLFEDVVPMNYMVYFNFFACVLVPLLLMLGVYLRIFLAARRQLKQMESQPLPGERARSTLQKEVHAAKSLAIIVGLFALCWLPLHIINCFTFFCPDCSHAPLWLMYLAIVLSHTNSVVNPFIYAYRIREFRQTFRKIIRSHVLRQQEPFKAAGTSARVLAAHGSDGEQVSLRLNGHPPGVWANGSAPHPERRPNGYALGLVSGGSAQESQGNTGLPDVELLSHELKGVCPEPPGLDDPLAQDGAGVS
# [3] = Mutagenic activity in Salmonella Typhimurium by Ames assay; type: toxicity; conditions: salmonella enterica subsp. enterica serovar typhimurium
SMILES,inhibition (Mus musculus [1]),ED50 (Mus musculus [2]) [mg/kg],Ki (Adenosine receptor A1) [nM],Ki (Adenosine receptor A2a) [nM],Activity [3]
Nc1nc(-c2ccncc2)c2c(n1)-c1ccccc1C2=O,inactive,–,–,–,–
CN1CCN(Cc2ccc3c(c2)-c2nc(N)nc(-c4ccc(F)cc4)c2C3=O)CC1,–,3.5,225,29.8,–
CCN(CC)Cc1cccc2c1-c1nc(N)nc(-c3ccccc3)c1C2=O,inactive,–,107,18.3,–
Nc1nc(-c2ccc(F)cc2)c2c(n1)-c1c(CN3CCCC3)cccc1C2=O,–,0.8,85,3.6,–
CN(C)CCN(C)Cc1cccc2c1-c1nc(N)nc(-c3ccccc3)c1C2=O,inactive,–,119,40.1,–
Nc1nc(-c2ccccc2)c2c(n1)-c1ccccc1C2=O,–,8,1.1,–,Non-toxic
COc1ccccc1-c1nc(N)nc2c1C(=O)c1ccccc1-2,inactive,–,–,–,Non-toxic
CN(C)CCN(C)c1ccc(-c2nc(N)nc3c2C(=O)c2ccccc2-3)o1,–,17.1,40,10.5,Non-toxic
CN1CCN(Cc2cccc3c2-c2nc(N)nc(-c4ccccc4)c2C3=O)CC1,–,7.8,94.2,11.3,–
Nc1nc(-c2ccc(Cl)cc2)c2c(n1)-c1ccccc1C2=O,inactive,–,–,–,Non-toxic
Nc1nc(-c2ccc(F)cc2)c2c(n1)-c1cc(CN3CCCC3)ccc1C2=O,–,1.6,66.2,12.8,–
Nc1nc(-c2ccccc2)c2c(n1)-c1c(CN3CCCC3)cccc1C2=O,–,3.8,116,2.5,–
CC1CCC(C)N1Cc1cccc2c1-c1nc(N)nc(-c3ccccc3)c1C2=O (stereo unspecified),inactive,–,140,11.3,–
Nc1nc(-c2ccccc2)c2c(n1)-c1c(CN3CCCCC3)cccc1C2=O,–,5,40.8,14.3,–
COc1cccc(-c2nc(N)nc3c2C(=O)c2ccccc2-3)c1,inactive,–,2.5,1.6,Non-toxic
Nc1nc(-c2ccccc2)c2c(n1)-c1c(CN3CCOCC3)cccc1C2=O,–,5.6,32.9,3.3,–
CC(=O)N1CCN(Cc2cccc3c2-c2nc(N)nc(-c4ccccc4)c2C3=O)CC1,–,10.7,34.1,7.9,–
Nc1nc(-c2ccc(F)cc2)c2c(n1)-c1cc(CN3CCCCC3)ccc1C2=O,–,0.6,95.7,9.9,–
CN(C)CCN(C)Cc1ccc2c(c1)-c1nc(N)nc(-c3ccccc3)c1C2=O,–,–,20,7.8,–
N#Cc1cccc(-c2nc(N)nc3c2C(=O)c2cccc(CN4CCOCC4)c2-3)c1,–,1.7,75,5.4,–
Nc1nc(-c2ccco2)c2c(n1)-c1ccccc1C2=O,–,5,0.4,–,Toxic
Nc1nc(-c2ccc(Cl)o2)c2c(n1)-c1ccccc1C2=O,inactive,–,0.5,0.2,–
Nc1nc(-c2ccc(F)cc2)c2c(n1)-c1c(CN3CCOCC3)cccc1C2=O,–,1.3,155,3.8,–
Nc1nc(-c2ccccc2)c2c(n1)-c1c(CN3CCCCCC3)cccc1C2=O,inactive,–,95.2,8.6,–
Nc1nc(-c2nccs2)c2c(n1)-c1ccccc1C2=O,inactive,–,–,0.5,–
